Data as given in ChEMBL document CHEMBL1201862, “PubChem BioAssay data set” (2004).
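Dose response: 5 concentrations. Exposure: 48 h. Format: 96-well plates. Endpoint: linear interpolation; highest concentration if not reached. Here, GI50 denotes the concentration required for 50% inhibition of growth.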 The source made the active and inactive calls. Rule as the data show it: active = GI50 up to about 1.1 µM and inactive = higher.

Columns and labels:
Assay in all cases: NCI-60 cell line screen, 48 h
[1] = test system: PC-3
[2] = test system: Hs-578T
[3] = test system: U-251
[4] = test system: COLO 205
[5] = test system: HCT-15
[6] = test system: OVCAR-3
[7] = test system: SK-MEL-2
[8] = test system: SW-620
[9] = test system: NCI/ADR-RES
[10] = test system: A549
[11] = test system: 786-0
[12] = test system: K562
[13] = test system: OVCAR-8
[14] = test system: NCI-H460
[15] = test system: Malme-3M
[16] = test system: ACHN
[17] = test system: HCT-116
[18] = test system: MDA-MB-231
[19] = test system: RPMI-8226

Compound	GI50 [1]	GI50 [2]	GI50 [3]	GI50 [4]	GI50 [5] [µM]	GI50 [6]	GI50 [7]	GI50 [8]	GI50 [9]	GI50 [10]	GI50 [11]	GI50 [12]	GI50 [13]	GI50 [14]	GI50 [15]	GI50 [16]	GI50 [17]	GI50 [18]	GI50 [19]
CN1CCC/C1=C1\C(=O)c2cccn2C1=O	> 100 µM (inactive)	> 100 µM (inactive)	> 100 µM (inactive)	> 100 µM (inactive)	> 100	> 100 µM (inactive)	> 100 µM (inactive)	> 100 µM (inactive)	> 100 µM (inactive)	> 100 µM (inactive)	> 100 µM (inactive)	> 100 µM (inactive)	> 100 µM (inactive)	> 100 µM (inactive)	> 100 µM (inactive)	> 100 µM (inactive)	> 100 µM (inactive)	> 100 µM (inactive)	> 100 µM (inactive)
O=C(O)C1(CC(CCCN2CCCCC2)c2ccccc2)CCCC1 (stereo not given)	> 100 µM (inactive)	> 100 µM (inactive)	> 100 µM (inactive)	> 100 µM (inactive)	> 100	41.8 µM (inactive)	> 100 µM (inactive)	> 100 µM (inactive)	> 100 µM (inactive)	> 100 µM (inactive)	> 100 µM (inactive)	> 100 µM (inactive)	> 100 µM (inactive)	> 100 µM (inactive)	> 100 µM (inactive)	> 100 µM (inactive)	> 100 µM (inactive)	> 100 µM (inactive)	> 100 µM (inactive)
CO[P@@]1(=O)O[C@@H](c2ccccc2)[C@H](O)[C@]1(O)c1ccccc1	> 100 µM (inactive)	> 100 µM (inactive)	> 100 µM (inactive)	> 100 µM (inactive)	> 100	> 100 µM (inactive)	> 100 µM (inactive)	> 100 µM (inactive)	> 100 µM (inactive)	> 100 µM (inactive)	> 100 µM (inactive)	> 100 µM (inactive)	> 100 µM (inactive)	> 100 µM (inactive)	> 100 µM (inactive)	> 100 µM (inactive)	> 100 µM (inactive)	> 100 µM (inactive)	> 100 µM (inactive)
Cc1ccc(C(C)C)c(OCC(=O)N/N=C/c2c[nH]c3ccc(Br)cc23)c1	0.625 µM (active)	4.82 µM (inactive)	3.11 µM (inactive)	1.69 µM (inactive)	2.1	2.19 µM (inactive)	2.44 µM (inactive)	3.61 µM (inactive)	1.57 µM (inactive)	3.1 µM (inactive)	3.42 µM (inactive)	2.38 µM (inactive)	3.95 µM (inactive)	2.17 µM (inactive)	6.3 µM (inactive)	4.85 µM (inactive)	3.15 µM (inactive)	3.17 µM (inactive)	2.47 µM (inactive)
S=C(N/N=C/c1ccccn1)Nc1ccc(Cl)cc1	0.0424 µM (active)	1.85 µM (inactive)	0.0528 µM (active)	< 0.0175 µM (active)	0.0398	< 0.01 µM (active)	2.14 µM (inactive)	0.0528 µM (active)	0.0366 µM (active)	0.307 µM (active)	0.0601 µM (active)	< 0.01 µM (active)	0.0333 µM (active)	0.0635 µM (active)	0.145 µM (active)	0.0455 µM (active)	0.0449 µM (active)	0.0542 µM (active)	0.134 µM (active)
Cc1nc2ccc(Cl)cc2c(Cl)c1CCCl	80.7 µM (inactive)	38.1 µM (inactive)	45.9 µM (inactive)	57.3 µM (inactive)	43.1	48 µM (inactive)	29.6 µM (inactive)	40.2 µM (inactive)	33.5 µM (inactive)	40.9 µM (inactive)	> 100 µM (inactive)	9.86 µM (inactive)	62.4 µM (inactive)	43.4 µM (inactive)	> 100 µM (inactive)	> 100 µM (inactive)	25.4 µM (inactive)	83.6 µM (inactive)	35.2 µM (inactive)
CC(=O)OC1COC(Nc2nc(NCc3ccccc3)n(C)c(=O)c2N=O)C(OC(C)=O)C1OC(C)=O (stereo not given)	> 10 µM (inactive)	> 10 µM (inactive)	> 10 µM (inactive)	> 10 µM (inactive)	> 10	> 10 µM (inactive)	> 10 µM (inactive)	> 10 µM (inactive)	> 10 µM (inactive)	> 10 µM (inactive)	> 10 µM (inactive)	> 10 µM (inactive)	> 10 µM (inactive)	> 10 µM (inactive)	> 10 µM (inactive)	> 10 µM (inactive)	> 10 µM (inactive)	> 10 µM (inactive)	> 10 µM (inactive)
COCCOC1=C(Cl)C(=O)c2c(O)ccc(O)c2C1=O	4.62 µM (inactive)	3.24 µM (inactive)	4.75 µM (inactive)	0.838 µM (active)	1.21	1.09 µM (active)	5.98 µM (inactive)	0.444 µM (active)	2.84 µM (inactive)	8.34 µM (inactive)	1.62 µM (inactive)	0.635 µM (active)	1.63 µM (inactive)	5.52 µM (inactive)	0.955 µM (active)	1.11 µM (active)	0.979 µM (active)	1.41 µM (inactive)	0.741 µM (active)
CC1(C)N=c2c(ncn2-c2ccccc2)=C(C(N)=O)N1	> 100 µM (inactive)	> 100 µM (inactive)	> 100 µM (inactive)	> 100 µM (inactive)	> 100	> 100 µM (inactive)	> 100 µM (inactive)	> 100 µM (inactive)	> 100 µM (inactive)	> 100 µM (inactive)	> 100 µM (inactive)	> 100 µM (inactive)	> 100 µM (inactive)	> 100 µM (inactive)	> 100 µM (inactive)	> 100 µM (inactive)	> 100 µM (inactive)	> 100 µM (inactive)	> 100 µM (inactive)
C/C(=N/NC(=O)c1ccccc1Nc1ccccc1C(=O)N/N=C(\C)c1ccc(C)cc1)c1ccc(C)cc1	41.7 µM (inactive)	> 100 µM (inactive)	> 100 µM (inactive)	83.6 µM (inactive)	55	4.62 µM (inactive)	> 100 µM (inactive)	> 100 µM (inactive)	> 100 µM (inactive)	46.3 µM (inactive)	> 100 µM (inactive)	57.4 µM (inactive)	> 100 µM (inactive)	15.5 µM (inactive)	32.5 µM (inactive)	23.9 µM (inactive)	53.3 µM (inactive)	79.1 µM (inactive)	> 100 µM (inactive)
O=C1c2ccccc2C(=O)c2sc(Nc3cc(Cl)ccc3Cl)nc21	3.21 µM (inactive)	9.25 µM (inactive)	6.56 µM (inactive)	16 µM (inactive)	2.94	0.74 µM (active)	11.4 µM (inactive)	2.94 µM (inactive)	2.63 µM (inactive)	16.4 µM (inactive)	3.61 µM (inactive)	2.99 µM (inactive)	3.77 µM (inactive)	6.68 µM (inactive)	1.44 µM (inactive)	5.3 µM (inactive)	3.3 µM (inactive)	1.87 µM (inactive)	3.22 µM (inactive)
OC1(c2ccc(Cl)cc2)C(N2CCCC2)c2ccccc2C2=NCCN21 (stereo not given)	30 µM (inactive)	29.9 µM (inactive)	37.4 µM (inactive)	11.5 µM (inactive)	21.4	37.2 µM (inactive)	21.9 µM (inactive)	20.3 µM (inactive)	18.6 µM (inactive)	39.9 µM (inactive)	35.1 µM (inactive)	13.6 µM (inactive)	23.9 µM (inactive)	24.2 µM (inactive)	18.5 µM (inactive)	30.3 µM (inactive)	10.9 µM (inactive)	24.3 µM (inactive)	13 µM (inactive)
COc1ccc(-c2c(C#N)c(=O)nc(SC)n2C2OCC(OC(C)=O)C(OC(C)=O)C2OC(C)=O)cc1 (stereo not given)	47.3 µM (inactive)	31.6 µM (inactive)	57.8 µM (inactive)	> 100 µM (inactive)	34.8	> 100 µM (inactive)	> 100 µM (inactive)	64.3 µM (inactive)	91.2 µM (inactive)	82.4 µM (inactive)	> 100 µM (inactive)	18.1 µM (inactive)	90.6 µM (inactive)	27.2 µM (inactive)	> 100 µM (inactive)	75 µM (inactive)	31.6 µM (inactive)	58.7 µM (inactive)	37.7 µM (inactive)
CC(=O)OCC(OC(C)=O)C(OC(C)=O)C(/C=N\Nc1nc2ccccc2c(=O)[nH]1)=N\Nc1nc2ccccc2c(=O)[nH]1 (stereo not given)	> 100 µM (inactive)	> 100 µM (inactive)	> 100 µM (inactive)	> 100 µM (inactive)	> 100	> 100 µM (inactive)	> 100 µM (inactive)	> 100 µM (inactive)	> 100 µM (inactive)	> 100 µM (inactive)	> 100 µM (inactive)	> 100 µM (inactive)	> 100 µM (inactive)	22.3 µM (inactive)	> 100 µM (inactive)	> 100 µM (inactive)	> 100 µM (inactive)	> 100 µM (inactive)	> 100 µM (inactive)
N#Cc1c2ccc([N+](=O)[O-])cc2c(=O)n2c1[nH]c1ccc(C(F)(F)F)cc12	> 38.2 µM (inactive)	24.4 µM (inactive)	26.4 µM (inactive)	16.9 µM (inactive)	16.1	18.2 µM (inactive)	> 64.7 µM (inactive)	14.4 µM (inactive)	23.2 µM (inactive)	> 55.8 µM (inactive)	40.6 µM (inactive)	12.5 µM (inactive)	33.1 µM (inactive)	21.1 µM (inactive)	41 µM (inactive)	48 µM (inactive)	10.1 µM (inactive)	22.2 µM (inactive)	4.48 µM (inactive)
